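Growth conditions: 96-well plates. Treatment: test compound, 48 hours, 5 concentrations. Analysis: linear interpolation between bracketing concentrations; unreached endpoints set to highest concentration. Abbreviation: GI50, concentration required for 50% inhibition of growth.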 Active and inactive are the calls of the source. Rule as the data show it: active = GI50 up to about 1.1 µM and inactive = higher. Where a SMILES comes first, the peptide text is derived from it. Bridges are numbered along the chain shown (N, C = ends). [ ]: non-standard residue; d: D form. The star is where a group is joined. ξ: configuration not given here. ξNMePhe(4-NMe2) = CNC(Cc1ccc(N(C)C)cc1)C(=O)O; Picolinoyl(3-OH) = O=C(c1ncccc1O)*; ξPip(4-oxo) = O=C1CCNC(C(=O)O)C1; Phg = N[CH](C(=O)O)c1ccccc1; Abu = CC[CH](N)C(=O)O

Some test systems named below: SK-MEL-28; PC-3; SK-OV-3; DU-145; SN12C; HCC 2998; SR; MDA-MB-231; EKVX; NCI-H23; SNB-19; Hs-578T; NCI/ADR-RES; HCT-116; A498; COLO 205; BT-549; MCF7; HT-29; HCT-15.
Assay in all cases: DTP human tumour cell line panel, 48 h

Turning to `COc1ccc2c(-c3cc4ccccc4o3)cc(=O)oc2c1`, the GI50 (commonly the concentration at which growth is held to half of that of the control) is 53.7 µM (inactive) with SK-MEL-28; 73.5 µM (inactive) in the experiment on PC-3; 23.1 µM (inactive) in the experiment on SK-OV-3; > 74.8 µM (inactive) in the experiment with DU-145; 68.9 µM (inactive) with SN12C; > 55.1 µM (inactive) in the experiment with HCC 2998. For the same compound, the GI50 is > 100 µM (inactive) in the experiment on SR; 47.8 µM (inactive) with MDA-MB-231; 48.6 µM (inactive) in the experiment with EKVX; 52.1 µM (inactive) in the experiment on NCI-H23; 26.1 µM (inactive) in the experiment on SNB-19; 11.4 µM (inactive) with Hs-578T. The GI50 was 24.7 µM (inactive) in the experiment with NCI/ADR-RES; 42.3 µM (inactive) in the experiment on HCT-116; 31.3 µM (inactive) in the experiment on A498; > 100 µM (inactive) in the experiment on COLO 205; 34.1 µM (inactive) in the experiment with BT-549; > 67.3 µM (inactive) with MCF7. Further, the GI50 in the experiment on HT-29 was > 78.2 µM (inactive); with HCT-15, greater than 100 µM.

As for `C[n+]1c2ccccc2n2c3ccccc3c(NCCCn3ccnc3)c(C#N)c21`, the GI50 was 3.48 µM (inactive) in the experiment on SK-MEL-28; 2.02 µM (inactive) in the experiment with PC-3; 3.54 µM (inactive) in the experiment on SK-OV-3; 2.77 µM (inactive) with DU-145; 1.26 µM (inactive) in the experiment with SN12C; 1.36 µM (inactive) in the experiment with HCC 2998. In addition, the GI50 is 1.27 µM (inactive) in the experiment on SR; 2.65 µM (inactive) in the experiment with MDA-MB-231; 4.78 µM (inactive) in the experiment on EKVX; 2.27 µM (inactive) in the experiment with NCI-H23; 4.01 µM (inactive) in the experiment with SNB-19; 1.64 µM (inactive) in the experiment with Hs-578T. Further, the GI50 with NCI/ADR-RES was > 42 µM (inactive); in the experiment on HCT-116 it was 1.08 µM (active); in the experiment on A498 it was 13.4 µM (inactive); in the experiment with COLO 205, 1.23 µM (inactive); in the experiment with BT-549, 17.6 µM (inactive); in the experiment on MCF7 it was 0.547 µM (active). The GI50 in the experiment with HT-29 was 3.31 µM (inactive); with HCT-15, 5.66 µM.

Take `CCOC(=O)c1ccc(Nc2nc3cc(C(F)(F)F)ccc3nc2C(=O)OCC)cc1`: the GI50 with SK-MEL-28 is > 100 µM (inactive); in the experiment with PC-3, 47.8 µM (inactive); in the experiment with SK-OV-3, 44.5 µM (inactive); with DU-145, > 100 µM (inactive); in the experiment on SN12C, > 100 µM (inactive); in the experiment with HCC 2998, 22.1 µM (inactive). Besides, the GI50 was > 100 µM (inactive) with SR; 74.5 µM (inactive) with MDA-MB-231; > 100 µM (inactive) with EKVX; 99.1 µM (inactive) in the experiment with NCI-H23; 22.6 µM (inactive) with SNB-19; > 100 µM (inactive) in the experiment on Hs-578T. The GI50 is > 100 µM (inactive) with NCI/ADR-RES; 34.2 µM (inactive) in the experiment on HCT-116; 36.6 µM (inactive) with A498; 46.9 µM (inactive) with COLO 205; 72.6 µM (inactive) with BT-549; > 100 µM (inactive) with MCF7. Further, the GI50 in the experiment with HT-29 was 84.1 µM (inactive); in the experiment with HCT-15, greater than 100 µM.

Take `CC1=C/C(O)CC(=O)Cc2nc(co2)C(=O)N2CCC=C2C(=O)OC(C(C)C)C(C)/C=C/C(=O)NC\C=C\1.CCC1NC(=O)C(NC(=O)c2ncccc2O)C(C)OC(=O)C(c2ccccc2)NC(=O)C2CC(=O)CCN2C(=O)C(Cc2ccc(N(C)C)cc2)N(C)C(=O)C2CCCN2C1=O` (stereo not given) ({Picolinoyl(3-OH)}-T[Abu]P[ξNMePhe(4-NMe2)][ξPip(4-oxo)][Phg]; ester 1-C; configuration not given here): the GI50 in the experiment on SK-MEL-28 is 13.7 µM (inactive); with PC-3, 8.07 µM (inactive); with SK-OV-3, 25.5 µM (inactive); in the experiment on DU-145, 7.33 µM (inactive); in the experiment on SN12C it was 9.35 µM (inactive); in the experiment on HCC 2998, 11.6 µM (inactive). The GI50 is 3.86 µM (inactive) in the experiment on SR; 7.55 µM (inactive) in the experiment on MDA-MB-231; 13.6 µM (inactive) with EKVX; 7.05 µM (inactive) in the experiment with NCI-H23; 13.1 µM (inactive) in the experiment with SNB-19; 18.2 µM (inactive) in the experiment with Hs-578T. Further, the GI50 is 25.3 µM (inactive) in the experiment with NCI/ADR-RES; 6.4 µM (inactive) in the experiment on HCT-116; 10 µM (inactive) in the experiment on A498; 6.59 µM (inactive) with COLO 205; 16.9 µM (inactive) with BT-549; 7.29 µM (inactive) in the experiment with MCF7. Further, the GI50 is 6.41 µM (inactive) in the experiment with HT-29 and 9.51 µM in the experiment with HCT-15.

Take `CC[C@@]1(O)C(=O)OCc2c1cc1n(c2=O)Cc2cc3c(N)cccc3nc2-1` [9-AMINOCAMPTOTHECIN]: the GI50 with SK-MEL-28 is 0.177 µM (active); with PC-3 it was 0.0728 µM (active); in the experiment on SK-OV-3 it was 0.0157 µM (active); in the experiment on DU-145, < 0.01 µM (active); with SN12C, < 0.01 µM (active); in the experiment on HCC 2998 it was 0.111 µM (active). For the same compound, the GI50 is < 0.215 µM (active) with SR; 0.272 µM (active) in the experiment on MDA-MB-231; 0.34 µM (active) in the experiment with EKVX; < 0.01 µM (active) in the experiment with NCI-H23; < 0.01 µM (active) in the experiment on SNB-19; 4.22 µM (inactive) in the experiment with Hs-578T. For the same compound, the GI50 in the experiment on NCI/ADR-RES was 0.0128 µM (active); in the experiment with HCT-116 it was 0.0272 µM (active); with A498 it was 0.0794 µM (active); in the experiment on COLO 205, 0.157 µM (active); in the experiment with BT-549, 0.0684 µM (active); in the experiment on MCF7 it was < 0.01 µM (active). Besides, the GI50 with HT-29 was 0.0632 µM (active); in the experiment on HCT-15 it was 0.197 µM.

The values are drawn from ChEMBL document CHEMBL1201862, “PubChem BioAssay data set” (2004).
